Values after ≈ are worked out from the molar mass of the structure shown.
Columns and labels:
Format in all cases: cell-based
M. suipneumoniae HR(2) = test: Anti-mycoplasmal MIC in vitro, Friis broth agarose (Table 1); settings: Mesomycoplasma hyopneumoniae, 144 h
M. suipneumoniae MS 16 = test: as above; settings: Mesomycoplasma hyopneumoniae, MS16, 144 h
Strep. pneumoniae CN33 = test: Human bacteria MIC, nutrient agar with chocolated horse blood (Table 3); settings: Streptococcus pneumoniae, CN33, 18 h
Method: (§1) The values were determined by serial dilutions in nutrient agar with 5% chocolated horse blood after incubations for 18 hours at 37° C.

E. coli ESS = test: as above; settings: Escherichia coli, 18 h
Method: as §1

Strep. 2733-B = test: as above; settings: 18 h
Method: as §1

Strep. 641848-C = test: as above; settings: 18 h
Method: as §1

[1] = tested on: Neisseria catarrhalis 1502; test: as above; settings: Neisseria, 1502, 18 h
Method: as §1

M. hyorhinis ATCC 23234 = test: Anti-mycoplasmal MIC in vitro, Friis broth agarose (Table 1); settings: Mesomycoplasma hyorhinis, ATCC23234, 144 h
M. gallisepticum S6 = test: as above; settings: Mycoplasmoides gallisepticum, S6, 144 h
[2] = tested on: M. suipneumoniae NCTC 10110; test: as above; settings: Mesomycoplasma hyopneumoniae, NCTC10110, 144 h
M. hyorhinis ATCC 25021 = test: as above; settings: Mesomycoplasma hyorhinis, ATCC25021, 144 h
[3] = tested on: Corynebacterium pyogenes CY1; test: Veterinary bacteria MIC, Diagnostic Sensitivity Test Agar (Table 2); settings: Trueperella pyogenes, CY1, 18 h
Method: (§2) The values were determined using a two fold serial dilutions in Diagnostic Sensitivity Test Agar with an inoculum of 10^4 organisms and incubation for 18 hours at 37° C.

Bord. bronchiseptica BO8 = test: as above; settings: Bordetella bronchiseptica, BO8, 18 h
Method: as §2

Strep. agalactiae SPA1 = test: as above; settings: Streptococcus agalactiae, SPA1, 18 h
Method: as §2

S. dublin S7 = test: as above; settings: Salmonella enterica, S7, 18 h
Method: as §2

[4] = tested on: Strep. suis (group D) SPS11; test: as above; settings: Streptococcus suis, 18 h
Method: as §2

Past. haemolytica PA5 = test: as above; settings: Mannheimia haemolytica, PA5, 18 h
Method: as §2

Staph. aureus Oxford = test: as above; settings: Staphylococcus aureus, 18 h
Method: as §2

Staph. aureus 152 = test: as above; settings: Staphylococcus aureus, 152, 18 h
Method: as §2

Bord. bronchiseptica BO9 = test: as above; settings: Bordetella bronchiseptica, BO9, 18 h
Method: as §2

Past. multocida PA1 = test: as above; settings: Pasteurella multocida, PA1, 18 h
Method: as §2

Past. multocida PA2 = test: as above; settings: Pasteurella multocida, PA2, 18 h
Method: as §2

Strep. dylgalactiae SPD1 = test: as above; settings: 18 h
Method: as §2

E. Coli E1 = test: as above; settings: Escherichia coli, 18 h
Method: as §2

S. typhimurium S18 = test: as above; settings: Salmonella enterica, TYPHIMURIUM, 18 h
Method: as §2

Strep. uberis SPO1 = test: as above; settings: Streptococcus uberis, SPO1, 18 h
Method: as §2

M. suipneumoniae LABER = test: Anti-mycoplasmal MIC in vitro, Friis broth agarose (Table 1); settings: Mesomycoplasma hyopneumoniae, 144 h
[5] = tested on: M. suipneumoniae J2206/183b; test: as above; settings: Mesomycoplasma hyopneumoniae, J2206/183B, 144 h

Compound: C/C(=C\C(=O)OCc1ccc([N+](=O)[O-])c([N+](=O)[O-])c1)CC1OCC(CC2OC2C(C)C(C)O)C(O)C1O (stereo not shown) [Example 9, 3,4-dinitrobenzyl monate A]
- MIC (M. suipneumoniae HR(2)): 0.5 µg/mL (≈ 0.953 µM)
- MIC (M. suipneumoniae MS 16): 0.25 µg/mL (≈ 0.477 µM)
- MIC (Strep. pneumoniae CN33): 2.5 µg/mL (≈ 4.77 µM)
- MIC (E. coli ESS): 1 µg/mL (≈ 1.91 µM)
- MIC (Strep. 2733-B): 2.5 µg/mL (≈ 4.77 µM)
- MIC (Strep. 641848-C): 2.5 µg/mL (≈ 4.77 µM)
- MIC [1]: 0.05 µg/mL (≈ 0.0953 µM)
- MIC (M. hyorhinis ATCC 23234): 0.25 µg/mL (≈ 0.477 µM)
- MIC (M. gallisepticum S6): 5 µg/mL (≈ 9.53 µM)
- MIC [2]: 0.5 µg/mL (≈ 0.953 µM)
- MIC (M. hyorhinis ATCC 25021): 0.25 µg/mL (≈ 0.477 µM)
- MIC [3]: > 80 µg/mL
- MIC (Bord. bronchiseptica BO8): 10 µg/mL (≈ 19.1 µM)
- MIC (Strep. agalactiae SPA1): 0.312 µg/mL (≈ 0.595 µM)
- MIC (S. dublin S7): > 80 µg/mL
- MIC [4]: 5 µg/mL (≈ 9.53 µM)
- MIC (Past. haemolytica PA5): 5 µg/mL (≈ 9.53 µM)
- MIC (Staph. aureus Oxford): 0.312 µg/mL (≈ 0.595 µM)
- MIC (Staph. aureus 152): 0.312 µg/mL (≈ 0.595 µM)
- MIC (Bord. bronchiseptica BO9): 5 µg/mL (≈ 9.53 µM)
- MIC (Past. multocida PA1): 0.625 µg/mL (≈ 1.19 µM)
- MIC (Past. multocida PA2): 0.156 µg/mL (≈ 0.297 µM)
- MIC (Strep. dylgalactiae SPD1): 0.07 µg/mL (≈ 0.133 µM)
- MIC (E. Coli E1): 80 µg/mL (≈ 153 µM)
- MIC (S. typhimurium S18): 80 µg/mL (≈ 153 µM)
- MIC (Strep. uberis SPO1): 0.156 µg/mL (≈ 0.297 µM)
- MIC (M. suipneumoniae LABER): 0.25 µg/mL (≈ 0.477 µM)
- MIC [5]: 1 µg/mL (≈ 1.91 µM)
